This series in a line: Solubility test in water and FaSSIF. The note with it: 37° C., up to 24 hours. It is filed as physicochemical.
Setting [1] is: thermodynamic from solid, FaSSIF (pH 6.5), read-out: Solubility.
[2] abbreviates: thermodynamic from solid, Water, read-out: Solubility.

Molecules are shown by their SMILES. In brackets after ≈: the same amount, converted by molar mass. Like-named read-outs stand apart in the source and are kept apart here.

What is called Solubility is how much of the substance goes into solution per volume. Turning to `CC(C)(O)[C@@H]1CC[C@@](C)([C@H]2[C@@H](O)C[C@@]3(C)[C@@H]4C[C@H](OC(=O)COCCOCCO)[C@H]5C(C)(C)C(F)(F)CC[C@@]56C[C@@]46CC[C@]23C)O1` [Compound 2-12, (2aR,3R,4S,5aS,5bS,7S,7aR,11aR,12aS)-9,9-difluoro-4-hydroxy-3-((2S,5S)-5-(2-hydroxypropan-2-yl)-2-methyltetrahydrofuran-2-yl)-2a,5a,8,8-tetramethyltetradecahydro-1H,12H-cyclopenta[a]cyclopropa[e]phenanthren-7-yl-2-(2-(2-hydroxyethoxy)ethoxy) Acetate], the Solubility turned out to be 1110 µg/mL under setting [1] and 680 µg/mL under setting [2].
On to `Br.CN(CC(=O)O[C@H]1C[C@@H]2[C@]3(CC[C@]4(C)[C@@H]([C@]5(C)CC[C@@H](C(C)(C)O)O5)[C@@H](O)C[C@@]24C)C[C@@]32CCC(F)(F)C(C)(C)[C@H]12)C(=O)[C@H](N)CC(=O)O` [Compound 2-33, (R)-3-carboxy-1-((2-(((2aR,3R,4S,5aS,5bS,7S,7aR,11aR,12aS)-9,9-difluoro-4-hydroxy-3-((2S,5S)-5-(2-hydroxypropan-2-yl)-2-methyltetrahydrofuran-2-yl)-2a,5a,8,8-tetramethyltetradecahydro-1H,12H-cyclopenta[a]cyclopropa[e]phenanthren-7-yl)oxy)-2-oxoethyl)(methyl)amino)-1-oxopropan-2-aminium bromide], for which the Solubility amounted to 6800 µg/mL (FaSSIF (pH 6.5)) and 2100 µg/mL (Water).
Take `CC(C)(O)[C@@H]1CC[C@@](C)([C@H]2[C@@H](O)C[C@@]3(C)[C@@H]4C[C@H](OP(=O)(O)O)[C@H]5C(C)(C)C(F)(F)CC[C@@]56C[C@@]46CC[C@]23C)O1` [Compound 11, (2aR,3R,4S,5aS,5bS,7S,7aR,11aR,12aS)-9,9-difluoro-4-hydroxy-3-((2S,5S)-5-(2-hydroxypropan-2-yl)-2-methyltetrahydrofuran-2-yl)-2a,5a,8,8-tetramethyltetradecahydro-1H,12H-cyclopenta[a]cyclopropa[e]phenanthren-7-yl dihydrogen phosphate]: the Solubility under setting [1] is 3200 µg/mL and the Solubility under setting [2] was determined as 790 µg/mL.
For `CC(C)(O)[C@@H]1CC[C@@](C)([C@H]2[C@@H](O)C[C@@]3(C)[C@@H]4C[C@H](OC(=O)COCCO)[C@H]5C(C)(C)C(F)(F)CC[C@@]56C[C@@]46CC[C@]23C)O1` [Compound 2-11, (2aR,3R,4S,5aS,5bS,7S,7aR,11aR,12aS)-9,9-difluoro-4-hydroxy-3-((2S,5S)-5-(2-hydroxypropan-2-yl)-2-methyltetrahydrofuran-2-yl)-2a,5a,8,8-tetramethyltetradecahydro-1H,12H-cyclopenta[a]cyclopropa[e]phenanthren-7-yl-2-(2-hydroxyethoxy)acetate] the same measures were 1050 µg/mL (≈ 1710 µM) and 550 µg/mL (≈ 898 µM).
`CC(C)(O)[C@@H]1CC[C@@](C)([C@H]2[C@@H](O)C[C@@]3(C)[C@@H]4C[C@H](OC(=O)[C@@H](N)Cc5c[nH]cn5)[C@H]5C(C)(C)C(F)(F)CC[C@@]56C[C@@]46CC[C@]23C)O1.O=S(=O)(O)O` [Compound 2-22, (2aR,3R,4S,5aS,5bS,7S,7aR,11aR,12aS)-9,9-difluoro-4-hydroxy-3-((2S,5S)-5-(2-hydroxypropan-2-yl)-2-methyltetrahydrofuran-2-yl)-2a,5a,8,8-tetramethyltetradecahydro-1H,12H-cyclopenta[a]cyclopropa[e]phenanthren-7-yl-L-histidinate Sulfate] came in with a Solubility (FaSSIF (pH 6.5)) of 1250 µg/mL and a Solubility (Water) of 700 µg/mL.
Take `Br.CC(C)(O)C1CCC(C)(C2C(O)CC3(C)C4CC(OC(=O)CNC(=O)C(N)CS)C5C(C)(C)C(F)(F)CCC56CC46CCC23C)O1` [Compound 2-32, (R)-1-((2-(((2aR,3R,4S,5aS,5bS,7S,7aR,11aR,12aS)-9,9-difluoro-4-hydroxy-3-((2S,5S)-5-(2-hydroxypropan-2-yl)-2-methyltetrahydrofuran-2-yl)-2a,5a,8,8-tetramethyltetradecahydro-1H,12H-cyclopenta[a]cyclopropa[e]phenanthren-7-yl)oxy)-2-oxoethyl)amino)-3-mercapto-1-oxopropan-2-aminium bromide]: the Solubility (FaSSIF (pH 6.5)) was 4960 µg/mL.
For `CC(C)(O)[C@@H]1CC[C@@](C)([C@H]2[C@@H](O)C[C@@]3(C)[C@@H]4C[C@H](OC(=O)COCCOCCOCCN)[C@H]5C(C)(C)C(F)(F)CC[C@@]56C[C@@]46CC[C@]23C)O1.O=C(O)C(F)(F)F` [Compound 2-8, 2-(2-(2-(2-(((2aR,3R,4S,5aS,5bS,7S,7aR,11aR,12aS)-9,9-difluoro-4-hydroxy-3-((2S,5S)-5-(2-hydroxypropan-2-yl)-2-methyltetrahydrofuran-2-yl)-2a,5a,8,8-tetramethyltetradecahydro-1H,12H-cyclopenta[a]cyclopropa[e]phenanthren-7-yl)oxy)-2-oxoethoxy)ethoxy)ethoxy)ethan-1-aminium Trifluoroacetate], the Solubility reads like this: (FaSSIF (pH 6.5)) 4020 µg/mL; (Water) 2050 µg/mL.
Regarding `C[C@@H](N)C(=O)N[C@H](C)C(=O)O[C@H]1C[C@@H]2[C@]3(CC[C@]4(C)[C@@H]([C@]5(C)CC[C@@H](C(C)(C)O)O5)[C@@H](O)C[C@@]24C)C[C@@]32CCC(F)(F)C(C)(C)[C@H]12.I` [Compound 2-35, (R)-1-(((R)-1-(((2aR,3R,4S,5aS,5bS,7S,7aR,11aR,12aS)-9,9-difluoro-4-hydroxy-3-((2 S,5S)-5-(2-hydroxypropan-2-yl)-2-methyltetrahydrofuran-2-yl)-2a,5a,8,8-tetramethyltetradecahydro-1H,12H-cyclopenta[a]cyclopropa[e]phenanthren-7-yl)oxy)-1-oxopropan-2-yl)amino)-1-oxopropan-2-aminium iodide], the Solubility by setting is: (FaSSIF (pH 6.5)) 3140 µg/mL; (Water) 1350 µg/mL.
The corresponding values for `CC(C)(O)C1CCC(C)(C2C(O)CC3(C)C4CC(OP(=O)(O)O)C5C(C)(C)C(F)(F)CCC56CC46CCC23C)O1.N` [Compound 3-2, Ammonium (2aR,3R,4S,5aS,5bS,7S,7aR,11aR,12aS)-9,9-difluoro-4-hydroxy-3-((2S,5S)-5-(2-hydroxypropan-2-yl)-2-methyltetrahydrofuran-2-yl)-2a,5a,8,8-tetramethyltetradecahydro-1H,12H-cyclopenta[a]cyclopropa[e]phenanthren-7-yl phosphate] are 22300 µg/mL and 12600 µg/mL.
Regarding `CC(C)(O)[C@@H]1CC[C@@](C)([C@H]2[C@@H](O)C[C@@]3(C)[C@@H]4C[C@H](OC(=O)[C@@H](N)CC(=O)O)[C@H]5C(C)(C)C(F)(F)CC[C@@]56C[C@@]46CC[C@]23C)O1` [Compound 2-24, (S)-3-carboxy-1-(((2aR,3R,4S,5aS,5bS,7S,7aR,11aR,12aS)-9,9-difluoro-4-hydroxy-3-((2S,5S)-5-(2-hydroxypropan-2-yl)-2-methyltetrahydrofuran-2-yl)-2a,5a,8,8-tetramethyltetradecahydro-1H,12H-cyclopenta[a]cyclopropa[e]phenanthren-7-yl)oxy)-1-oxopropan-2-aminium 2,2,2-trifluoroacetate], the Solubility is, setting by setting: under setting [1], 5450 µg/mL (≈ 8710 µM); under setting [2], 1500 µg/mL (≈ 2400 µM).
`Br.CC(C)(O)C1CCC(C)(C2C(O)CC3(C)C4CC(OC(=O)COCCOCCOCCOCCOCCN)C5C(C)(C)C(F)(F)CCC56CC46CCC23C)O1` [Compound 2-10, 17-(((2aR,3R,4S,5aS,5bS,7S,7aR,11aR,12aS)-9,9-difluoro-4-hydroxy-3-((2S,5S)-5-(2-hydroxypropan-2-yl)-2-methyltetrahydrofuran-2-yl)-2a,5a,8,8-tetramethyltetradecahydro-1H,12H-cyclopenta[a]cyclopropa[e]phenanthren-7-yl)oxy)-17-oxo-3,6,9,12,15-pentaoxaheptadecan-1-aminium Bromide]: the Solubility runs as follows: (FaSSIF (pH 6.5)) 4390 µg/mL; (Water) 2280 µg/mL.
Compound `CC(NC(=O)C(N)CC(N)=O)C(=O)OC1CC2C3(C)CC(O)C(C4(C)CCC(C(C)(C)O)O4)C3(C)CCC23CC32CCC(F)(F)C(C)(C)C12.Cl` [Compound 2-34, (S)-4-amino-1-(((S)-1-(((2aR,3R,4S,5aS,5bS,7S,7aR,11aR,12aS)-9,9-difluoro-4-hydroxy-3-((2S,5S)-5-(2-hydroxypropan-2-yl)-2-methyltetrahydrofuran-2-yl)-2a,5a,8,8-tetramethyltetradecahydro-1H,12H-cyclopenta[a]cyclopropa[e]phenanthren-7-yl)oxy)-1-oxopropan-2-yl)amino)-1,4-di oxobutan-2-aminium chloride] registered a Solubility (FaSSIF (pH 6.5)) of 3200 µg/mL and a Solubility (Water) of 1180 µg/mL.

The values above are taken from patent US20220177511A1, “SERIES OF HALOGENATED TETRACYCLIC TRITERPENE DERIVATIVES AND THEIR PREPARATION AND APPLICATION” (SHANGHAI KING-X BIOTECH CO., LTD, priority 2019, published 2022).
